Reference: patent publication US20170280720A1, “ARGININE […] INHIBITORS AND USES THEREOF” (EPIZYME, INC., priority 2014, published 2017)
Where a name gives a salt, the structure may show the parent alone.

biological target: T1, human PRMT1 (Homo sapiens, UniProt Q99873); assay: PRMT1 biochemical assay (3H-SAM Flashplate, peptide substrate); settings: read-out: PRMT1_ IC50
T1 construct: GST-tagged PRMT1; made in house; host or cells: High Five insect cells (baculovirus, pFastBacI)
Summary of the method: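 FLAG-tagged full-length human PRMT1 (0.5 nM, GST-tagged, insect-cell expressed) preincubated 30 min at RT with compound, then biotinylated histone H4 36-50 peptide (20 nM) plus 200 nM 3H-SAM and 1.5 uM SAM in Bicine pH 7.6, 2% DMSO. 3H-methylated peptide captured on streptavidin Flashplate; IC50 from 3/4-parameter fit.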

T1 sequence (Q99873 with tags, fused parts or gaps): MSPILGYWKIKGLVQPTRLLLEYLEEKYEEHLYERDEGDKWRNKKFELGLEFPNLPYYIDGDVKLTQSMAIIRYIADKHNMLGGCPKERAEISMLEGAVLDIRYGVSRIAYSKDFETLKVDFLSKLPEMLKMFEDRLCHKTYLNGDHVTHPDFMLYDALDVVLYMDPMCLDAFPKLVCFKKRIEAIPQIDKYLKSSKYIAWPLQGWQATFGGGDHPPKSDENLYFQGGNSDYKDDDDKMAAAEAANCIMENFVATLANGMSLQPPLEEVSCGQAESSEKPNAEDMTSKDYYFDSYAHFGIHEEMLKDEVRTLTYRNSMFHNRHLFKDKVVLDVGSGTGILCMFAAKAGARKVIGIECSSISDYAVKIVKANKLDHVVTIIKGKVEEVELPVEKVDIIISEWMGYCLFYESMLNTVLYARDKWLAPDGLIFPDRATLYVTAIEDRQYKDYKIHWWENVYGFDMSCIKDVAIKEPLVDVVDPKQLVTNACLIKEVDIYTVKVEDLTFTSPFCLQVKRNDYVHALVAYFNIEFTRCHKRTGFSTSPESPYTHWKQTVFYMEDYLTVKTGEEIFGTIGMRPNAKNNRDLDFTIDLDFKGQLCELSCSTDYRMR

Row | SMILES | IC50 [µM]
1 | CC(C)n1ncc2c(C(=O)N(C)[C@@H](C)c3ccccc3)cc(-c3cccc(CN(C)CCN)c3)cc21 [Compound 3] | 0.0267
2 | CNCCN(C)Cc1cccc(-c2cnc3c(c2)c(C2CC2)nn3CC2CCOCC2)c1 [Compound 4] | 0.0348
3 | CN(CCN)Cc1cccc(-c2nc(NCc3cn4ccsc4n3)c3cnn(C4CC4)c3n2)c1 [Compound 5] | 0.0369
4 | CNCCN(C)Cc1cccc(-c2nc(NCc3cn4ccsc4n3)c3cnn(C4CC4)c3n2)c1 [Compound 6] | 0.0369
5 | Cc1c(C(=O)NCc2ccccc2)cc(-c2ccc(CN(C)CCN)cc2)c2cn[nH]c12 [Compound 7] | 0.0452
6 | COc1cccc(Cn2cnc3ccc(-c4ccc(CN(C)CCN)cc4)cc32)c1 [Compound 8] | 0.047
7 | CNCCN(C)Cc1cccc(-c2nc(NCc3ccccn3)c3cnn(C4CC4)c3n2)c1 [Compound 9] | 0.0473
8 | CCC(O)c1cc(-c2cccc(CN(C)CCNC)c2)nc2c1cnn2C(C)C (centres unmarked) [Compound 48] | 0.212
9 | CNCCN(C)Cc1cccc(-c2cc(-c3cnn(C)c3)c3cnn(C(C)C)c3n2)c1 [Compound 49, N1-(3-(1-isopropyl-4-(1-methyl-1H-pyrazol-4-yl)-1H-pyrazolo[3,4-b]pyridin-6-yl)benzyl)-N1,N2-dimethylethane-1,2-diamine] | 0.213
10 | CNCCN(C)Cc1cccc(-c2cc(N3CCC(C(F)(F)F)CC3)c3cnn(C(C)C)c3n2)c1 [Compound 50] | 0.223
11 | CNCCN(C)Cc1cccc(-c2cc(N3CCC(OC)CC3)c3cnn(C(C)C)c3n2)c1 [Compound 51] | 0.226
12 | Cc1c(CNc2nc(-c3cccc(CN(C)CCN)c3)nc3c2cnn3C2CC2)cnn1C [Compound 52] | 0.226
13 | CCOc1cc(-c2cccc(CN(C)CCNC)c2)nc2c1cnn2C(C)C [Compound 53] | 0.228
14 | CC(C)n1ncc2c(C(=O)NCc3ccccc3Cl)cc(-c3cccc(CN(C)CCN)c3)nc21 [Compound 54] | 0.231
15 | CNCCN(C)Cc1cccc(-c2cc(N3CCCC(C#N)C3)c3cnn(C(C)C)c3n2)c1 (centres unmarked) [Compound 55] | 0.236
16 | CNCCN(C)Cc1cccc(-c2cc(C(=O)N3CCCCC3)c3cnn(C(C)C)c3n2)c1 [Compound 56] | 0.238
17 | CNCCN(C)Cc1cccc(-c2nc(NCc3cnn(C)c3C)c3cnn(C4CC4)c3n2)c1 [Compound 57] | 0.238
18 | CNCCN(C)Cc1cccc(-c2cc(NC3COC3)c3cnn(C(C)C)c3n2)c1 [Compound 58] | 0.239
19 | CC(C)n1cc2c(Cl)cc(-c3cccc(CN(C)CCN)c3)nc2n1 [Compound 59] | 0.244

Row | SMILES | IC50 [µM]
20 | CNCCN(C)Cc1cccc(-c2cc(C(=O)NCCCC(=O)NCC3CCOCC3)c3cnn(C(C)C)c3n2)c1 [Compound 60] | 0.248
21 | CC(C)n1ncc2c(N3CCOCC3)cc(-c3cccc(CN(C)CCN)c3)nc21 [Compound 61, N1-(3-(1-isopropyl-4-morpholino-1H-pyrazolo[3,4-b]pyridin-6-yl)benzyl)-N1-methylethane-1,2-diamine] | 0.249
22 | CNCCN(C)Cc1cccc(-c2cc(N3CCOCC3)n3ncc(C(C)C)c3n2)c1 [Compound 62, N1-(3-(3-isopropyl-7-morpholinopyrazolo[1,5-a]pyrimidin-5-yl)benzyl)-N1,N2-dimethylethane-1,2-diamine formate] | 0.258
23 | CNCCN(C)Cc1cccc(-c2nc(NCc3cccnc3)c3cnn(C4CC4)c3n2)c1 [Compound 63] | 0.262
24 | CNCCN(C)Cc1cccc(-c2cc(C(=O)NCCC(=O)NCC3CCOCC3)c3cnn(C(C)C)c3n2)c1 [Compound 64] | 0.271
25 | CC(C)n1ncc2c(C(=O)NCc3ccccc3F)cc(-c3cccc(CN(C)CCN)c3)nc21 [Compound 65] | 0.271
26 | CN(CCN)Cc1cccc(-c2nc(NCc3ccncc3)c3cnn(C4CC4)c3n2)c1 [Compound 66] | 0.274
27 | CNCCN(C)Cc1cccc(-c2cc(-c3ccoc3)c3cnn(C(C)C)c3n2)c1 [Compound 67] | 0.275
28 | CNCCN(C)Cc1cccc(-c2cc(N3CCOCC3)c3cnn(C(C)C)c3n2)c1 [Compound 68] | 0.277
29 | CNCCN(C)Cc1cccc(-c2nc(NCc3ccncc3)c3cnn(C4CC4)c3n2)c1 [Compound 69] | 0.282
30 | NCCNCc1ccc(-c2ccc3ncn(CC4CCNCC4)c3c2)cc1 [Compound 70] | 0.295
31 | COC(=O)Nc1cc(-c2cccc(CN(C)CCN)c2)nc2c1cnn2C(C)C [Compound 71] | 0.302
32 | CCNc1cc(-c2cccc(CN(C)CCNC)c2)nc2c1cnn2C(C)C [Compound 72] | 0.303
33 | CNCCN(C)Cc1cccc(-c2ccc3cnn(C(C)C)c3n2)c1 [Compound 73] | 0.306
34 | CNCCN(C)Cc1cccc(-c2cc(C#N)c3cnn(C(C)C)c3n2)c1 [Compound 74] | 0.309
35 | CNCCN(C)Cc1cccc(-c2ccc3nc[nH]c3c2)c1 [Compound 75] | 0.312
36 | CNCCN(C)Cc1cccc(-c2cc(NC3CCOCC3)c3cnn(C(C)C)c3n2)c1 [Compound 76] | 0.317
37 | CCOC(=O)c1cc(-c2cccc(CN(C)CCNC)c2)nc2c1cnn2C(C)C [Compound 78] | 0.337
38 | CNCCN(C)Cc1cccc(-c2cc(N3CCC3)c3cnn(C(C)C)c3n2)c1 [Compound 79] | 0.341

Row | SMILES | IC50 [µM]
39 | COc1ccccc1Cn1cnc2ccc(-c3ccc(CNCCN)cc3)cc21 [Compound 80] | 0.345
40 | NCCNCc1ccc(-c2ccc3ncn(CC4CCCNC4)c3c2)cc1 (centres unmarked) [Compound 81] | 0.359
41 | Cc1ccccc1Cn1cnc2ccc(-c3ccc(CNCCN)cc3)cc21 [Compound 82] | 0.375
42 | CNCCN(C)Cc1cccc(-c2cc(C(=O)NCCC(=O)NCc3ccn(C)n3)c3cnn(C(C)C)c3n2)c1 [Compound 83] | 0.378
43 | CC(C)n1ncc2c(NC(=O)OCc3ccccc3)cc(-c3cccc(CN(C)CCN)c3)nc21 [Compound 84] | 0.387
44 | CNCCN(C)Cc1cccc(-c2cc(NC(=O)NC(C)C)c3cnn(C(C)C)c3n2)c1 [Compound 85] | 0.391
45 | CC(C)NC(=O)Nc1cc(-c2cccc(CN(C)CCN)c2)nc2c1cnn2C(C)C [Compound 86] | 0.397
46 | CNCCN(C)Cc1cccc(-c2cc(C(=O)NC3CCOCC3)c3cnn(C4CC4)c3n2)c1 [Compound 87] | 0.412
47 | CNCCN(C)Cc1cccc(-c2cc(C(=O)NCCCC(=O)NCc3ccn(C)n3)c3cnn(C(C)C)c3n2)c1 [Compound 88] | 0.413
48 | CNCCN(C)Cc1cccc(-c2ccc3ncn(C)c3c2)c1 [Compound 92] | 0.432
49 | CNCCN(C)Cc1cccc(-c2cc(N3CCC(C#N)CC3)c3cnn(C(C)C)c3n2)c1 [Compound 93] | 0.433
50 | COc1cccc(CCn2cnc3ccc(-c4ccc(CNCCN)cc4)cc32)c1 [Compound 94] | 0.446
51 | CNCCN(C)Cc1cccc(-c2cc(N(C)C3CC3)c3cnn(C(C)C)c3n2)c1 [Compound 95] | 0.451
52 | CN(CCN)Cc1cccc(-c2nc(NC3CC3)c3cnn(C4CC4)c3n2)c1 [Compound 96] | 0.451
53 | Cc1ccc(Cn2cnc3ccc(-c4ccc(CNCCN)cc4)cc32)cc1 [Compound 97] | 0.452
54 | CNCCN(C)Cc1cccc(-c2cc(C(=O)NCc3ccccn3)c3cnn(C(C)C)c3n2)c1 [Compound 98] | 0.456
55 | CNCCN(C)Cc1cccc(-c2nc(N3CCOCC3)c3cnn(C(C)C)c3n2)c1 [Compound 99] | 0.457
56 | CNCCN(C)Cc1cccc(-c2ccc3cnn(C(C)C)c3c2)c1 [Compound 100] | 0.477
